Holding throughout (format): biochemical
The target of experiment [1] is T1, cathepsin K (Homo sapiens, UniProt P43235).
T1 sequence (P43235 115-329): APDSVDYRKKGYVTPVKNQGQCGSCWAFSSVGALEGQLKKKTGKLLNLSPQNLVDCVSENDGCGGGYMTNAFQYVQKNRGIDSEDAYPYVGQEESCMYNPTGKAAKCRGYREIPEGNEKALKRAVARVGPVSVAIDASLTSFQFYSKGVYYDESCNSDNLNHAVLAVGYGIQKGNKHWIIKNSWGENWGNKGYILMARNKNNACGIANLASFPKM
The experiment in a line: Inhibitory activity assay against cathepsin K (enzyme assay). The following applies: Z-Phe-Arg-AMC 10 μM, enzyme 1 nM, pH 5.5, 30 minutes. The essentials:
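IC50 by 4-parameter logistic fit of fluorescence (ex 355 nm, em 460 nm) after 30 min reaction. Compound tested at 10 final concentrations from 10.0 μM down to 0.000508 μM against 1 nM enzyme and 10 μM Z-Phe-Arg-AMC, in MES buffer pH 5.5 with DTT, EDTA, Triton X-100 and 10% DMSO.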

Experiment [2] concerns the target cathepsin B (Homo sapiens, UniProt P07858). Description: Inhibitory activity assay against cathepsin B (enzyme assay). The following applies: Z-Arg-Arg-AMC 40 μM, enzyme 1 nM, pH 6.0, 90 minutes. The essentials:
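Reaction run 90 min in MES buffer pH 6.0 containing DTT, EDTA, Polysorbate 20 and 10% DMSO, using 40 μM fluorogenic Z-Arg-Arg-AMC and 1 nM cathepsin B. Ten compound levels from 10.0 μM; AMC fluorescence at ex 340/em 460 nm fitted to a 4-parameter logistic for IC50.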

For experiment [3], the target named is cathepsin L (Homo sapiens, UniProt P07711). The experiment in a line: Inhibitory activity assay against cathepsin L (enzyme assay). The note with it: Z-Phe-Arg-AMC 2 μM, enzyme 3 nM, pH 5.5, 30 minutes. An outline of the steps: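 IC50s came from 4-parameter logistic fits of ten concentrations (10.0 μM down to 0.000508 μM). Reaction: 30 min, 3 nM enzyme, 2 μM Z-Phe-Arg-AMC, pH 5.5 MES buffer containing DTT, EDTA, Polysorbate 20 and 10% DMSO; fluorescence read 340/460 nm.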

Experiment [4] has as its target cathepsin S (Homo sapiens, UniProt P25774). Description: Inhibitory activity assay against cathepsin S (enzyme assay). The note with it: Z-Phe-Arg-AMC 70 μM, enzyme 3 nM, pH 6.5, 45 minutes. The essentials: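 Ten-point compound titration (10.0 to 0.000508 μM final) reacted 45 min with 3 nM cathepsin S and 70 μM Z-Phe-Arg-AMC in MES 50 mM pH 6.5, DTT 2.5 mM, EDTA 1.0 mM, BSA 0.001%, DMSO 10%. AMC release read at 340/460 nm; IC50 from four-parameter logistic fit.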

Our source for the IC50 values is patent publication US11299478B2, “2-cyanopyrimidin-4-yl carbamate or urea derivative or salt thereof, and pharmaceutical composition including same” (HANLIM PHARMACEUTICAL CO., LTD., priority 2018, dated 2022).

Chain of cathepsin L (P07711 114-333, species assumed): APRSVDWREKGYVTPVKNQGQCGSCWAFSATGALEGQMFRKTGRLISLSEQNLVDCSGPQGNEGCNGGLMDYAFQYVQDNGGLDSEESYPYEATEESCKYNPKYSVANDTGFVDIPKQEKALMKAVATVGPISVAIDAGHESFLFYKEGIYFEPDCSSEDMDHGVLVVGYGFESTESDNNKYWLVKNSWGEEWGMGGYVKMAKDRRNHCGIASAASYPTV
Chain of cathepsin S (P25774 115-331, species assumed): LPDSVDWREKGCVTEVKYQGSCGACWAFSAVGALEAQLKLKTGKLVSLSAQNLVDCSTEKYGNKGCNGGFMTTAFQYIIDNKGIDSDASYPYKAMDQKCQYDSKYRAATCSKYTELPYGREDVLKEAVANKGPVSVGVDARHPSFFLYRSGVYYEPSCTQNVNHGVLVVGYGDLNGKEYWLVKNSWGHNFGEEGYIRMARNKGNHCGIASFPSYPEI

Regarding `CS(=O)(=O)c1ccc(-c2ccc(NC(=O)NC3(c4ccnc(C#N)n4)CCCCC3)cc2)cc1C(F)(F)F` [Example 171, 1-(1-(2-cyanopyrimidin-4-yl)cyclohexyl)-3-(4′-(methylsulfonyl)-3′-(trifluoromethyl)-[1,1′-biphenyl]-4-yl)urea], the IC50 in experiment [1] was 24 nM; in experiment [2] it was over 10000 nM; in experiment [3], over 10000 nM; in experiment [4] it was 2190 nM.

Take `N#Cc1nccc(C2(NC(=O)Nc3ccc(-c4ccccc4C(F)(F)F)cc3)CCCCC2)n1` [Example 172, 1-(1-(2-cyanopyrimidin-4-yl)cyclohexyl)-3-(2′-(trifluoromethyl)-[1,1′-biphenyl]-4-yl)urea]: the IC50 in experiment [1] is 108 nM; in experiment [2] it was over 10000 nM; in experiment [3] it was over 10000 nM; in experiment [4], 8020 nM.

For `N#Cc1nccc(C2(NC(=O)Nc3ccc(-c4ccc(S(N)(=O)=O)cc4)cc3)CCCCC2)n1` [Example 173, 4′-(3-(1-(2-cyanopyrimidin-4-yl)cyclohexyl)ureido)-[1,1′-biphenyl]-4-sulfonamide], the IC50 in experiment [1] was 13.8 nM; in experiment [2], over 10000 nM; in experiment [3] it was over 10000 nM; in experiment [4] it was over 10000 nM.

As to `CS(=O)(=O)Nc1ccc(-c2ccc(NC(=O)NC3(c4ccnc(C#N)n4)CCCCC3)cc2)cc1` [Example 174, N-(4′-(3-(1-(2-cyanopyrimidin-4-yl)cyclohexyl)ureido)-[1,1′-biphenyl]-4-yl)methanesulfonamide], the IC50 in experiment [1] is 11.7 nM; in experiment [2], over 10000 nM; in experiment [3] it was over 10000 nM; in experiment [4], over 10000 nM.

Turning to `N#Cc1nccc(C2(NC(=O)Nc3ccc(-c4ccccc4C(F)(F)F)c(C(F)(F)F)c3)CCCCC2)n1` [Example 176, 1-(2,2′-bis(trifluoromethyl)-[1,1′-biphenyl]-4-yl)-3-(1-(2-cyanopyrimidin-4-yl)cyclohexyl)urea], the IC50 in experiment [1] was 122 nM; in experiment [2], over 10000 nM; in experiment [3] it was over 10000 nM; in experiment [4], 5840 nM.

For the molecule `N#Cc1nccc(C2(NC(=O)Nc3ccc(-c4ccc(S(=O)(=O)C(F)(F)F)cc4)c(C(F)(F)F)c3)CCCCC2)n1` [Example 177, 1-(1-(2-cyanopyrimidin-4-yl)cyclohexyl)-3-(2-(trifluoromethyl)-4′-((trifluoromethyl)sulfonyl)-[1,1′-biphenyl]-4-yl)urea], the IC50 in experiment [1] is 205 nM; in experiment [2], over 10000 nM; in experiment [3], over 10000 nM; in experiment [4], 6140 nM.

For `CS(=O)(=O)c1ccc(-c2ccc(NC(=O)NC3(c4ccnc(C#N)n4)CCCCC3)cc2C(F)(F)F)cc1C(F)(F)F` [Example 178, 1-(1-(2-cyanopyrimidin-4-yl)cyclohexyl)-3-(4′-(methylsulfonyl)-2,3′-bis(trifluoromethyl)-[1,1′-biphenyl]-4-yl)urea], the IC50 in experiment [1] is 21.2 nM; in experiment [2] it was over 10000 nM; in experiment [3] it was over 10000 nM; in experiment [4] it was 5600 nM.

On to `N#Cc1nccc(C2(NC(=O)Nc3ccc(-c4ccc(S(N)(=O)=O)cc4)c(C(F)(F)F)c3)CCCCC2)n1` [Example 179, 4′-(3-(1-(2-cyanopyrimidin-4-yl)cyclohexyl)ureido)-2′-(trifluoromethyl)-[1,1′-biphenyl]-4-sulfonamide], for which the IC50 is 11.5 nM in experiment [1], over 10000 nM in experiment [2], 7530 nM in experiment [3] and 2760 nM in experiment [4].

As to `CS(=O)(=O)Nc1ccc(-c2ccc(NC(=O)NC3(c4ccnc(C#N)n4)CCCCC3)cc2C(F)(F)F)cc1` [Example 180, N-(4′-(3-(1-(2-cyanopyrimidin-4-yl)cyclohexyl)ureido)-2′-(trifluoromethyl)-[1,1′-biphenyl]-4-yl)methanesulfonamide], the IC50 was 10.9 nM in experiment [1], over 10000 nM in experiment [2], over 10000 nM in experiment [3] and over 10000 nM in experiment [4].

As for `CC(C)N1CCN(c2ccc(-c3ccc(CNC(=O)NC4(c5ccnc(C#N)n5)CCCCC4)cc3)cc2)CC1` [Example 181, 1-(1-(2-cyanopyrimidin-4-yl)cyclohexyl)-3-((4′-(4-isopropylpiperazin-1-yl)-[1,1′-biphenyl]-4-yl)methyl)urea], the IC50 in experiment [1] is 1.9 nM; in experiment [2], over 10000 nM; in experiment [3], over 10000 nM; in experiment [4] it was over 10000 nM.

`N#Cc1nccc(C2(NC(=O)Nc3ccc(C#CCCC(=O)O)cc3)CCCCC2)n1` [Example 182, 5-(4-(3-(1-(2-cyanopyrimidin-4-yl)cyclohexyl)ureido)phenyl)pent-4-ynoic acid]: the IC50 in experiment [1] was 10.5 nM; in experiment [2] it was over 10000 nM; in experiment [3] it was over 10000 nM; in experiment [4] it was over 10000 nM.

Consider `N#Cc1nccc(C2(NC(=O)Nc3ccc(C#Cc4ccc(CO)cc4)cc3)CCCCC2)n1` [Example 183, 1-(1-(2-cyanopyrimidin-4-yl)cyclohexyl)-3-(4-((4-(hydroxymethyl)phenyl)ethynyl)phenyl)urea], for which the 50% inhibitory concentration (IC50) in experiment [1] was 22 nM; in experiment [2] it was over 10000 nM; in experiment [3], over 10000 nM; in experiment [4] it was over 10000 nM.

With `N#Cc1nccc(C2(NC(=O)Nc3ccc(-c4ccc(C(=O)NCCc5c[nH]cn5)cc4)cc3)CCCCC2)n1` [Example 184, N-(2-(1H-imidazol-4-yl)ethyl)-4′-(3-(1-(2-cyanopyrimidin-4-yl)cyclohexyl)ureido)-[1,1′-biphenyl]-4-carboxamide], the half-inhibitory concentration (IC50) in experiment [1] worked out at 0.2 nM; in experiment [2], 2150 nM; in experiment [3] it was 2420 nM; in experiment [4], 8050 nM.

For the molecule `N#Cc1nccc(C2(NC(=O)Nc3ccc(-c4ccc(C(=O)NCCn5ccnc5)cc4)cc3)CCCCC2)n1` [Example 185, N-(2-(1H-imidazol-1-yl)ethyl)-4′-(3-(1-(2-cyanopyrimidin-4-yl)cyclohexyl)ureido)-[1,1′-biphenyl]-4-carboxamide], the IC50 in experiment [1] was 0.1 nM; in experiment [2], 1760 nM; in experiment [3], 4400 nM; in experiment [4], over 10000 nM.

For the molecule `N#Cc1nccc(C2(NC(=O)Nc3ccc(-c4ccc(C(=O)NCCn5ccnc5)cc4)c(F)c3)CCCCC2)n1` [Example 186, N-(2-(1H-imidazol-1-yl)ethyl)-4′-(3-(1-(2-cyanopyrimidin-4-yl)cyclohexyl)ureido)-2′-fluoro-[1,1′-biphenyl]-4-carboxamide], the IC50 in experiment [1] was 0.1 nM; in experiment [2], 2740 nM; in experiment [3] it was 2020 nM; in experiment [4] it was over 10000 nM.

As for `N#Cc1nccc(C2(NC(=O)Nc3ccc(-c4ccc(C(=O)NCCn5nccn5)cc4)c(F)c3)CCCCC2)n1` [Example 188, N-(2-(2H-1,2,3-triazol-2-yl)ethyl)-4′-(3-(1-(2-cyanopyrimidin-4-yl)cyclohexyl)ureido)-2′-fluoro-[1,1′-biphenyl]-4-carboxamide], the IC50 in experiment [1] is 16.1 nM; in experiment [2], over 10000 nM; in experiment [3], over 10000 nM; in experiment [4] it was 4330 nM.

Take `N#Cc1nccc(C2(NC(=O)Nc3ccc(-c4ccc(C(=O)NCCc5c[nH]cn5)cc4)c(C(F)(F)F)c3)CCCCC2)n1` [Example 189, N-(2-(1H-imidazol-4-yl)ethyl)-4′-(3-(1-(2-cyanopyrimidin-4-yl)cyclohexyl)ureido)-2′-(trifluoromethyl)-[1,1′-biphenyl]-4-carboxamide]: the IC50 is 0.6 nM in experiment [1], 5400 nM in experiment [2], 1190 nM in experiment [3] and over 10000 nM in experiment [4].

For the molecule `N#Cc1nccc(C2(NC(=O)Nc3ccc(-c4ccc(OCCN)cc4)cc3)CCCCC2)n1` [Example 190, 1-(4′-(2-aminoethoxy)-[1,1′-biphenyl]-4-yl)-3-(1-(2-cyanopyrimidin-4-yl)cyclohexyl)urea], the IC50 in experiment [1] was 0.3 nM; in experiment [2], 7870 nM; in experiment [3], over 10000 nM; in experiment [4] it was over 10000 nM.

For `CNCCOc1ccc(-c2ccc(NC(=O)NC3(c4ccnc(C#N)n4)CCCCC3)cc2)cc1` [Example 191, 1-(1-(2-cyanopyrimidin-4-yl)cyclohexyl)-3-(4′-(2-(methylamino)ethoxy)-[1,1′-biphenyl]-4-yl)urea], the IC50 in experiment [1] is 0.1 nM; in experiment [2], 4760 nM; in experiment [3], over 10000 nM; in experiment [4], over 10000 nM.

As usually defined, the IC50 is the point on the concentration scale where inhibition reaches its midpoint.
